# Reference: patent US20080081841A1, “Materials and Methods for Modulating Cell Motility” (priority 2003, published 2008)
# Columns and labels:
# [1] = test system: T47D-5R cells expressing Neu or Neu mutants (NYPD, YC, YD, YE); assay: Transwell migration assay, HRG-induced; type: cell-based, human; conditions: for HRG-induced migration of Neu cells: starting 4 hrs after HRG treatment, RNA or protein synthesis inhibitor
# Description: (§1) Cell migration was tested using 8 μm-pore polycarbonate membrane Transwell chambers (Corning Costar Products, Acton, Mass., USA) as described previously^3. In brief, the bottom side of the membrane was coated with 25 μg/ml rat tail collagen I (Roche). Serum starved cells were plated in the top Transwell chamber. Medium with or without 1 nM HRG-β1 (R&D systems, Inc., Minneapolis, Minn., USA) was added to the bottom chamber and cells were allowed to migrate for 24 hours. Non-migrated cells were scraped off the top of the membrane. Migrated cells were fixed in 4% formaldehyde and stained in 0.1% crystal violet. Cells were counted under a microscope in ten high power fields. Migration was expressed as cell number per mm^2. In some instances, cells were pre-incubated for 60 minutes with the U0126 MEK inhibitor (50 μM; Promega), the LY294002 PI3K inhibitor (50 μM; Calbiochem-Novabiochem Corporation, San Diego, Calif., USA), the SB203580 p38 MAPK inhibitor (20 μM; Calbiochem), a Src inhibitor (2.5 μM), the U-73122 PLC inhibitor (2 μM; Calbiochem), cycloheximide (10 μg/ml; Sigma) or 5,6-dichloro-1-β-D-ribofuranosylbenzimidazole (20 μg/ml; Fluka Chemie GmbH, Buchs, Switzerland). Cells were then allowed to migrate for 8 hours before counting.
# (§2) Cells were transfected with siRNA using Oligofectamine (GIBCO) according to the manufacturer's instructions. The following 21-mer oligoribonucleotide pairs (obtained from Xeragon Inc., Huntsville, Ala., USA) were used: for Shc (accession number HSU7377) nucleotide 236 to 25640, for Memo (CGI-27; accession number AF132961) nucleotide 460 to 480 and for control LacZ (accession number M55068) nucleotide 4277 to 4297. Cells were plated for migration assay 3 days after siRNA transfection and allowed to migrate for 24 hours. Cell lysates were also prepared 3 and 4 days after transfection and analyzed by Western blotting using a specific anti-Shc antibody (BD Transduction laboratories, Heidelberg, Germany). For Memo, mRNA was extracted using RNeasy Mini (Qiagen, Cologne, Germany) and quantitative radioactive PCR^41 was performed using Memo specific primers (forward from nucleotide 90 to 111 and reverse from nucleotide 235 to 256).
# Peptides were delivered into cells using Chariot protein transfection reagent (Active Motif, Rixensart, Belgium) according to the instruction manual. 16 aa-peptides spanning Tyr residue 1201 of Neu (YC peptide) and Tyr residue 1227 of Neu (YD peptide) were obtained from Neosystem (Strasbourg, France) in phosphorylated and non phosphorylated forms. Cells were plated for migration 30 minutes after peptide transfection and the assay was finished after 22 hours.
# ErbB2 = target: T1, ErbB2 (Homo sapiens, UniProt P04626); assay: Shc immunoprecipitation in SKBr3 cells; type: cell-based
# T1 construct: endogenous in cells; host or cells: SKBr3 breast carcinoma cells
# T1 sequence (P04626 23-1255): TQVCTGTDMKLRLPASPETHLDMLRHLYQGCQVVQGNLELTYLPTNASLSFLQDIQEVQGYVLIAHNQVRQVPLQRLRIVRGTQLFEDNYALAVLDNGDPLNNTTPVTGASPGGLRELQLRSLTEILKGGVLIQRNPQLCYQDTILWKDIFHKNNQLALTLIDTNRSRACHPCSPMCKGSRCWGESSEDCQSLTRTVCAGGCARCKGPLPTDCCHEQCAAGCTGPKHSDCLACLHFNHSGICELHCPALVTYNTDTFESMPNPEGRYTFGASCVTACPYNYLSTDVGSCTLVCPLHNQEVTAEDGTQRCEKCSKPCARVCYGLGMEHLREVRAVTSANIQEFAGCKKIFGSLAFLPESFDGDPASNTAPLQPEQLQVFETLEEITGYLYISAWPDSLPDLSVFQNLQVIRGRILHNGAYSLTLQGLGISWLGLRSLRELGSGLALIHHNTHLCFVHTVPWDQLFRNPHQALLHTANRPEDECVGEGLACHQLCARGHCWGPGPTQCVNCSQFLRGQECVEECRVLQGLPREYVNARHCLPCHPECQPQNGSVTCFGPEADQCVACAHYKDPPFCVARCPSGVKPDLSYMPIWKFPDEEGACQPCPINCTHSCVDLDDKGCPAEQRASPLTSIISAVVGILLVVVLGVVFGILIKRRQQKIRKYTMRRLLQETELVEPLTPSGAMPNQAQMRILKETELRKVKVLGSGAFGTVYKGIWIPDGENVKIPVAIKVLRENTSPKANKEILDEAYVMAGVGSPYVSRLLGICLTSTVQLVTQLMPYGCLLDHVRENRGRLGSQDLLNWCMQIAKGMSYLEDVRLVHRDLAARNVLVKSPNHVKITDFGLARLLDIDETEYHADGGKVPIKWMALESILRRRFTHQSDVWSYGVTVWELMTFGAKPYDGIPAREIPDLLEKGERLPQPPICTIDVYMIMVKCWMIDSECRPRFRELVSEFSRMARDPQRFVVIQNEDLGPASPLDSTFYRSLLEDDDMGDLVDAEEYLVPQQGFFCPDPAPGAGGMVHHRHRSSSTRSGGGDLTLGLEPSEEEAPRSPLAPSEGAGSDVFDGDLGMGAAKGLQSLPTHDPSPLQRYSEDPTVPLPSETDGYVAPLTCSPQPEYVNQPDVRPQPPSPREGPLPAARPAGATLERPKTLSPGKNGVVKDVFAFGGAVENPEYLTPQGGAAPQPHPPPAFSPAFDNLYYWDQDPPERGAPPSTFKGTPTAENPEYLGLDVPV
# T47D and SKBr3 cells [2] = assay: HRG-induced microtubule outgrowth; type: cell-based; conditions: nocodazole-treated cells
# T47D and SKBr3 cells [3] = assay: Actin staining / lamellipodia morphology; type: cell-based; conditions: nocodazole-treated cells
# Description: Cells were grown on glass coverslips (Falcon, Le Pont De Claix, France) coated with 25 μg/ml rat tail collagen I, serum starved overnight and stimulated with 1 nM HRG-β1 for different times. Cells were fixed in 4% formaldehyde in phosphate buffer saline (PBS) for 20 minutes, permeabilized in 0.2% Triton X-100 for 10 minutes, blocked with 1% bovine serum albumin in PBS for 20 minutes before addition of anti-Myc antibody (Santa Cruz) and Alexa-Fluor 568 goat anti-mouse IgG (Molecular Probes, Leiden, The Netherlands). DNA was counterstained with 0.25 mg/ml Hoechst No. 33342 (Sigma). Actin was stained for 45 minutes with 2 U/ml TRITC-labeled phalloidin (Molecular Probes). Images were recorded with an Axioskop Zeiss microscope coupled to a Sony 3CCD camera or an Olympus IX70 microscope linked to the DeltaVision workstation (Applied Precision, Issaquah, Wa)
# F-actin was visualised with TRITC-labelled phalloidin.
# T47D cells = assay: Transwell migration assay; type: cell-based, human; conditions: FIG. 1a, 7f
# Description: as §1
# as §2, with “Cells were plated for migration assay 3 days after siRNA transfection and allowed to migrate for 24 hours.” left out
compound,measurement,setting,value
"OC[C@H]1O[C@@H](n2cnc3cc(Cl)c(Cl)cc32)[C@H](O)[C@@H]1O [DRB, 5,6-Dichloro-1-β-D-ribofuranosylbenzimidazole]",HRG-induced migration of Neu cells,[1]; FIG. 4a,strongly blocked
C[C@@H](Nc1ncnc2[nH]c(-c3ccc(O)cc3)cc12)c1ccccc1 [PKI166],CGI-27's ability to associate with Shc,ErbB2,did not influence
same,ErbB2 receptor level in Shc immunoprecipitates,ErbB2,lowered
C[C@@H]1C[C@@H]([C@H](O)CC2CC(=O)NC(=O)C2)C(=O)[C@@H](C)C1 [cycloheximide],migration rate of Neu cells,"[1]; compared with NYPD cells, FIG. 4a",reduced the migration rate of Neu cells to that of NYPD cells
same,"migration of YD cells, cycloheximide treatment and Memo knock-down compared","[1]; effects not additive, FIG. 7d",blocked to a similar extent
same,HRG-induced migration of Neu cells,[1]; FIG. 4a,strongly blocked
COC(=O)Nc1nc2ccc(C(=O)c3cccs3)cc2[nH]1 [nocodazole],microtubule growth,T47D and SKBr3 cells [2],do not grow microtubules
same,lamellipodia formation,T47D and SKBr3 cells [3],still capable of forming lamellipodia
"EGF: epidermal growth factor (NSDSECPLSHDGYCLHDGVCMYIEALDKYACNCVVGYIGERCQYRDLKWWELR; Epidermal growth factor; UniProt P01133 971-1023, looked up)",stimulation of T47D cell migration by ligand,T47D cells,to a lower degree
FGF2: Fibroblast growth factor (FGF) 2,stimulation of T47D cell migration by ligand,T47D cells,stimulated T47D cell migration
insulin: insulin,stimulation of T47D cell migration by ligand,T47D cells,to a lower degree
